Earlier results in patent EP3292864A1, “MODIFIED RELEASE TABLET COMPOSITION COMPRISING MIRABEGRON” (Synthon B.V., priority 2017, dated 2018).

Nc1nc(CC(=O)Nc2ccc(CCNC[C@H](O)c3ccccc3)cc2)cs1 [Mirabegron, (R)-2-(2-aminothiazol-4-yl)-4'-[2-[(2-hydroxy-2-phenylethyl)amino]ethyl]acetic acid anilide]
solubility in water (assessment report of Betmiga® published by the European Medicines Agency): soluble in water between neutral to acidic pH
solubility (per BCS class): high solubility
